The values below are quoted from earlier work in patent US20070065449A1 (priority 2005, published 2007).

The test system of series [1] is soft tissue sarcomas. The conditions noted are these: previously untreated patients; 95% CI 0.1, 29.
In series [2] the test system is tubulin. The conditions noted are these: read-out: concentration required to provide 50% inhibition of microtubule disassembly (IC50).
For series [3] the following is noted: in vivo.
In series [4] the test system is soft tissue sarcoma. The conditions noted are these: 29 evaluable patients, previously treated with chemotherapy.
In series [5] the test system is soft tissue sarcoma. To be noted: 27 evaluable patients, previously treated with chemotherapy.
Experiment in series [6]: not given
This is another data set of the same source.

Experiment in series [7]: not given
The source holds these as a separate data set.

In series [8] the test system is soft tissue sarcomas.
Series [9] has as its system advanced soft tissue sarcomas.
Series [10] relates to pretreated adult soft tissue sarcoma.
Series [11] has as its system advanced soft tissue sarcomas. To be noted: previously untreated advanced soft tissue sarcomas.
The subject of series [12] is leiomyosarcoma of the uterus. To be noted: 48 evaluable patients.
In series [13] the test system is angiosarcoma of the scalp or face. To be noted: four partial and four clinical complete responses.

Molecules are shown by their SMILES. Structures can show the parent of a compound that is named as a salt. Where two headings read alike, the source gives them in different places. Some results are limits rather than exact numbers.

For `Nc1ccn([C@@H]2O[C@H](CO)[C@@H](O)C2(F)F)c(=O)n1` [Gemcitabine HCl, 2′-deoxy-2′,2′-difluorocytidine monohydrochloride ((beta)-isomer)], the “solubility in ethanol and polar organic solvents” value was “practically insoluble”; the solubility in methanol result is reported as “slightly soluble”; the solubility in water entry is listed as “soluble”.
Turning to `CC(=O)O[C@@]12CO[C@@H]1C[C@H](O)[C@@]1(C)C(=O)[C@H](O)C3=C(C)[C@@H](OC(=O)[C@H](O)[C@@H](NC(=O)OC(C)(C)C)c4ccccc4)C[C@@](O)([C@@H](OC(=O)c4ccccc4)[C@H]21)C3(C)C` [docetaxel], the response rate in series [1] was 5.9%. In addition, in series [2], the IC50 was 200 nM. Moreover, the “major toxic effect which limits dose” value in series [3] is “neutropenia”. Further, the partial responses is listed as 17% in [4] and 15% in series [5]. Besides, the “storage time of initial diluted solution” value in series [6] (10 mg docetaxel/ml, refrigerator or room temperature) was no more than 8 h. In addition, the “stability of infusion solution” value in series [6] (stored between 2 and 25° C.) is 4 h.
With `Nc1ccn([C@@H]2O[C@H](CO)[C@@H](O)C2(F)F)c(=O)n1` [gemcitabine], the “hemolytic uremic syndrome (HUS)” value in series [7] (6 of 2429 patients) was 0.25%. In [7] (human, in vivo), the edema is recorded as 13%, the flu syndrome is on record as 19%, the generalized edema was less than 1% and the “overall incidence of fever” value was 41%. In addition, in series [7] (human, in vivo), the peripheral edema is listed as 20%, the principal dose-limiting toxicity entry was “Myelosuppression” and the rash is reported as 30%. The nausea and vomiting in [7] (usually mild to moderate severity) was 69%. Further, the “objective responses in patients with GIST” value in series [8] (17 patients with GIST) is reported as “no objective responses”. Besides, in series [8] (in vivo), the “median duration of remission” value is listed as 3.5 months. Besides, the remission rate in series [8] (patients with soft tissue sarcomas) is given as 18%. Moreover, the “duration of a partial response in a patient” value in [9] (in vivo) is 8 months. Besides, in [9] (previously untreated patients, 90% CI 0, 18), the rate of remissions was 4%. For the same compound, the disease stabilization in [10] (15 assessable patients) is listed as 47%. Moreover, in series [10] (calculated, 95% CI 0, 30.5), the “progression-free survival rate at 6 months” value is 13.3%. Further, the “progression-free survival rate at 3 months” value in [10] (calculated, 95% CI 21.4, 71.9) is 46.7%. Further, the remission rate in [10] (gemcitabine 1.0 g/m^2 days 1, 8, 15 every 4 weeks, 15 assessable patients) is 6%. For the same compound, the median progression-free survival in series [10] (range 1-18+) is on record as 3 months.
For the compound `CC(=O)O[C@H]1C(=O)[C@@]2(C)[C@H]([C@H](OC(=O)c3ccccc3)[C@]3(O)C[C@H](OC(=O)[C@H](O)[C@@H](NC(=O)c4ccccc4)c4ccccc4)C(C)=C1C3(C)C)[C@]1(OC(C)=O)CO[C@@H]1C[C@@H]2O` [paclitaxel], the response rate in series [11] is 12.5%. For the same compound, in series [12], the “complete or partial response” value is 8.4% and the stable disease was 22.9%. Further, the IC50 in [2] is 400 nM. Also, the patients responding entry in series [13] is listed as “eight of nine”.
